Converted amounts (≈) assume the structure as drawn.
tested on: not given; assay: not given; settings: value from S. P. Ng et al. (2005), footnote *; cited from earlier work

For O=c1cc(-c2ccc(O)cc2)oc2cc(O)cc(O)c12 [5,7-dihydroxy-2-(4-hydroxyphenyl)-4H-chomen-4-one], which “Solubility (PBS)” value is on record?
The value was 3.37* μM.

same assay, conditions: value from S. P. Ng et al. (2005), footnote *; listed as apigenin; cited from earlier work

With O=c1cc(-c2ccc(O)cc2)oc2cc(O)cc(O)c12 [5,7-dihydroxy-2-(4-hydroxyphenyl)-4H-chomen-4-one] as the compound, how does the “Solubility (PBS)” value read?
The value was 3.27 µM (≈ 0.884 µg/mL).

biological target: T1, Brd4 bromodomain 1 (Homo sapiens, UniProt O60885); assay: Inhibition of tetra-acetylated histone H4 binding to BET bromodomain (TR-FRET); settings: His-tagged first bromodomain of Brd4 (200 nM), biotinylated tetra-acetylated histone H4 peptide, 2 hours at room temperature
T1 construct: Illustrative results with the first bromodomain of Brd4; made in house; host or cells: E. coli BL21(DE3)
Description: Proteins were cloned and overexpressed with a N-terminal 6×His tag, then purified by nickel affinity followed by size exclusion chromatography. Briefly, E. coli BL21(DE3) cells were transformed with a recombinant expression vector encoding N-terminally Nickel affinity tagged bromodomains from Brd2, Brd3, Brd4. Cell cultures were incubated at 37° C. with shaking to the appropriate density and induced overnight with IPTG. The supernatant of lysed cells was loaded onto Ni-IDA column for purification. Eluted protein was pooled, concentrated and further purified by size exclusion chromatography. Fractions representing monomeric protein were pooled, concentrated, aliquoted, and frozen at −80° C. for use in subsequent experiments.
Binding of tetra-acetylated histone H4 and BET bromodomains was confirmed by a Time Resolved Fluorescence Resonance Energy Transfer (TR-FRET) method. N-terminally His-tagged bromodomains (200 nM) and biotinylated tetra-acetylated histone H4 peptide (25-50 nM, Millipore) were incubated in the presence of Europium Cryptate-labeled streptavidin (Cisbio Cat. #610SAKLB) and XL665-labeled monoclonal anti-His antibody (Cisbio Cat. #61HISXLB) in a white 96 well microtiter plate (Greiner). For inhibition assays, serially diluted test compound was added to these reactions in a 0.2% final concentration of DMSO. Final buffer concentrations were 30 mM HEPES pH 7.4, 30 mM NaCl, 0.3 mM CHAPS, 20 mM phosphate pH 7.0, 320 mM KF, 0.08% BSA). After 2 hours incubation at room temperature, the fluorescence by FRET was measured at 665 and 620 nm by a SynergyH4 plate reader (Biotek). Illustrative results with the first bromodomain of Brd4. The binding inhibitory activity was shown by a decrease in 665 nm fluorescence relative to 620 nm. IC50 values were determined from a dose response curve.

Which “FRET activity (<50 uM)” value does the source give for O=c1cc(-c2ccc(O)c(Br)c2)oc2ncccc12 [Example 8, 2-(3-Bromo-4-hydroxyphenyl)-4H-pyrano[2,3-b]pyridin-4-one] here?
The value was “Active”.

Which “FRET activity (<50 uM)” value does the source give for O=c1cc(-c2ccc(O)cc2)oc2cccnc12 [Example 2, 2-(4-Hydroxy-phenyl)-pyrano[3,2-b]pyridin-4-one] here?
Its value is “Active”.

With O=c1cc(-c2ccc(O)cc2)oc2ncccc12 [Example 1, 2-(4-Hydroxy-phenyl)-pyrano[2,3-b]pyridin-4-one] as the compound, how does the “FRET activity (<50 uM)” value read?
Its value is “Active”.

tested on: Caco-2 cells; assay: Caco-2 permeability (in vitro Caco-2 intestinal transport model); assay type: in vitro ADME; settings: not given
From the text: The Caco-2 cell drug transport model is widely used for screening compounds in drug discovery to assess intestinal transport and predict absorption rates.

For CCCO [Propanol], which “% Transported Paap” value is on record?
Its value is 10.1 ×10⁻⁶ cm/s.

With O=c1cc(-c2ccc(O)cc2)oc2cc(O)cc(O)c12 [5,7-dihydroxy-2-(4-hydroxyphenyl)-4H-chomen-4-one] as the compound, how does the “Apparent permeability (Papp)” value read?
Its value is 1.5 ×10⁻⁶ cm/s.

Which “Apparent permeability (Papp)” value does the source give for Oc1ccc(C=Cc2cc(O)cc(O)c2)cc1 [Resveratrol] here?
Its value is 3.34 ×10⁻⁶ cm/s.

tested on: not given; assay: not given; settings: not given

Which melting point does the source give for Cc1cc(-c2cc(=O)c3cccnc3o2)ccc1O [Example 5, 2-(4-Hydroxy-3-methylphenyl)-4H-pyrano[2,3-b]pyridine-4-one] here?
Its melting point is 300 to 302 °C.

Which melting point does the source give for O=c1cc(-c2ccc(O)c(Br)c2)oc2ncccc12 [Example 8, 2-(3-Bromo-4-hydroxyphenyl)-4H-pyrano[2,3-b]pyridin-4-one] here?
Its melting point is 267 to 272 °C.

Which melting point does the source give for COc1cc(-c2cc(=O)c3cccnc3o2)ccc1O [Example 9, 2-(4-Hydroxy-3-methoxyphenyl)-4H-pyrano[2,3-b]pyridine-4-one] here?
The melting point was 253 to 255 °C.

Which melting point does the source give for O=c1cc(-c2ccc(OCCO)cc2)oc2ncccc12 [Example 11, 2-(4-(2-Hydroxyethoxy)phenyl)-4H-pyrano[2,3-b]pyridine-4-one] here?
The melting point was 157 to 159 °C.

With CC(=O)Oc1ccc(-c2cc(=O)c3cccnc3o2)cc1 [Example 12, 4-(4-Oxo-4H-pyrano[2,3-b]pyridine-2-yl)phenyl acetate] as the compound, how does the melting point read?
The melting point was 167 to 169 °C.

For O=c1cc(-c2ccc(O)cc2)oc2ccncc12 [Example 6, 2-(4-Hydroxyphenyl)-4H-pyrano[3,2-c]pyridin-4-one], which melting point is on record?
The melting point was 306 to 308 °C.

Which melting point does the source give for O=c1cc(-c2ccc(O)c(CO)c2)oc2ncccc12 [Example 13, 2-(4-Hydroxy-3-(hydroxymethyl)phenyl)-4H-pyrano[2,3′-b]pyridine-4-one] here?
The melting point was 226 to 227 °C.

With O=c1cc(-c2ccc(O)c(Cl)c2)oc2ncccc12 [Example 7, 2-(3-Chloro-4-hydroxyphenyl)-4H-pyrano[2,3-b]pyridine-4-one] as the compound, how does the melting point read?
The melting point was 259 to 262 °C.

Which melting point does the source give for O=c1cc(-c2ccc(O)c(F)c2)oc2ncccc12 [Example 4, 2-(3-Fluoro-4-hydroxyphenyl)pyrano[2,3-b]pyridine-4-one] here?
Its melting point is 267 to 268 °C.

Which melting point does the source give for COc1ccc(-c2cc(=O)c3cccnc3o2)cc1 [Example 10, 2-(4-Methoxyphenyl)-4H-pyrano[2,3-b]pyridine-4-one] here?
The melting point was 269 to 270 °C.

Which melting point does the source give for O=c1cc(-c2ccc(O)cc2)oc2cnccc12 [Example 3, 2-(4-Hydroxyphenyl)-pyrano[2,3-c]pyridin-4-one] here?
Its melting point is 294 to 296 °C.
